Measurements: patent publication US11035858B2, “Methods of isolating barrel-like proteases and identifying peptides processed thereby” (Yeda Research and Development Co. Ltd., priority 2016, dated 2021)
Residues, ends and D or L forms follow the SMILES beside them. *: point of attachment. Cbz = O=C(OCc1ccccc1)*

Molecular target: T1, Purified proteasomes (Homo sapiens, UniProt P28074)
T1 construct: using this protocol active proteasomes are efficiently isolated from cells; endogenous in cells; immunoprecipitated with anti-α6 antibodies
Experiment: Proteasome activity-based assay with fluorogenic Suc-LLVY-Amc substrate
Assay type: biochemical
Settings: fluorescent LLVY peptide substrate; FIG. 2
Method: Proteasome Activity-Based Assay.
Purified proteasomes were incubated with the fluorogenic substrate peptide Suc-LLVY-Amc (100 μM) in a reaction mixture containing 50 mM Hepes, pH 7.5, 1 mM DTT, 5 mM MgCl2, and 2 mM ATP. fluorescence of cleaved Amc was measured (excitation, 360 nm; emission, 470 nm).
A unique system of ‘Proteasomal Profiling’ was developed for the isolation of the active-degradome from the cell by purifying the proteasomal peptide pool, which represents proteins actively undergoing degradation at the time of experiment (FIG. 1). Proteasomal complexes were purified by immunoprecipitation using specific antibodies against the α6 subunit of the 20S core particle. To examine whether the catalytic activity of the proteasomes is retained during the purification procedures, an activity-based assay was performed using a fluorescent LLVY peptide substrate.

CC(C)C[C@@H](C=O)NC(=O)[C@H](CC(C)C)NC(=O)[C@H](CC(C)C)NC(=O)OCc1ccccc1 [MG132] (Cbz-Leu-Leu-Leu-aldehyde)
degradation of the LLVY substrate by purified proteasomes: sensitive
